Entries after “also recorded” stand apart in the source; their conditions may differ.
Columns and labels:
Assay type in all cases: cell-based
[1] = test system: Serratia marcescens ATCC 14756; test: Time Kill Efficacy, chelant comparison; conditions: chelant added to cationic active-containing base formula
Method: Testing was performed to assess performance of differing chelants. Multiple amino acid based chelants were tested in exemplary compositions of the invention and tested against a control formulation containing no chelant.
Formula 5A served as the control having no chelant. Formulas 5B and 5C included GLDA and MGDA, respectively, for comparative testing against each other and the control. The compositions were inoculated with Serratia marcescens ATCC 14756 for 30 seconds at room temperature. Before adding the antimicrobial compositions, the inoculum numbers were measured (CFO/mL). The average count was […] providing a log average of 8.06. The inoculated surface was contacted with the various formulations for 30 seconds and the log reduction was measured.

[2] = test system: Serratia marcescens ATCC 14756; test: in vitro Time Kill testing (ASTM E 2315), Serratia marcescens; conditions: 1.2% cationic surfactant with 0.6% benzalkonium chloride, Table 6
Method: (§1) In Examples 1-4, the survival of challenged organisms exposed to an antimicrobial test composition was measured using in vitro Time Kill testing, based on ASTM E 2315 Standard Guide for Assessment of Antimicrobial Activity Using a Time Kill Procedure. Utilizing this method, the inoculum is prepared by growing a microbial culture using a D/E agar medium. The microbial population then is washed from the agar with sterile physiological saline and the population of the microbial suspension is adjusted to around 10^8 colony forming units (cfu) per ml. An aliquot of the test formula, or a dilution thereof, is brought into contact with this known population of bacteria at ambient temperature. The test composition is neutralized after a set amount of time, which arrests the antimicrobial activity of the test sample. The log reduction from the original bacteria population is calculated using the following formula: log10 reduction=log10(control)−log10(test sample survivors) Each test was performed in duplicate and the average log reduction reported.
Once it was determined that cationic surfactants with chain lengths having 18 or less carbons provided enhanced microbiological efficacy, three such cationic surfactants were evaluated against Serratia marcescens, a Gram negative microorganism. […]

[3] = test system: Escherichia coli ATCC 11229; test: in vitro Time Kill testing (ASTM E 2315), cationic-compatible surfactants, Table 4; conditions: 1% surfactant in 0.2% benzalkonium chloride formula
Method: as §1, with “reported. The efficacy of formulations with differing cationic-compatible surfactants with the same alkyl chain length is outlined in Tables 3 and 4. In each instance, citric acid and/or potassium hydroxide were used to maintain a pH of 6, and water was added quantum satis. […]” for “reported.”

Compound	effect of chelant on antimicrobial efficacy of base formula [1]	degree of microbiological efficacy [2]	impact on microbiological efficacy [3]
O=C(O)CC[C@@H](C(=O)O)N(CC(=O)O)CC(=O)O [GLDA, Glutamic acid diacetic acid]	did not show any enhancement of antimicrobial efficacy		
CCCCCCCCCCCC[N+](C)(C)C.[Cl-] [Laurtrimonium chloride, Lauryl Trimethyl Ammonium Chloride]		highest degree of efficacy	
CC(C(=O)O)N(CC(=O)O)CC(=O)O (stereo not drawn) [MGDA, Methylglycinediacetic acid]	significantly enhance the biocidal activity; also recorded: much higher log reduction		
CCCCCCCCCCCCCCCC(=O)NCCC[N+](C)(C)C.[Cl-] [Palmitamidopropyl trimonium chloride, Palmitamidopropyl Trimonium Chloride]		lowest degree of microbiological efficacy	
Cocamidopropyl Betaine			significant negative impact on microbiological efficacy
Coco Glucoside			negative impact on microbiological efficacy

— patent US11930819B2, “Antimicrobial compositions with enhanced efficacy” (ECOLAB USA INC., priority 2017, dated 2024)
